Patent US12371454B2, “Cyclic peptide compound having Kras inhibitory action” (priority 2019, dated 2025)
Starred links: 1 amine or outer side, 2 acyl side, 3 side chain; linkers in the order of their positions; H or OH if unused. Positions of bridges follow the written chain, without caps; N, C: chain ends. Non-standard residues stand in square brackets, D forms with d. Residues, ends and D or L forms follow the SMILES beside them. *: point of attachment. hPhe(3-Cl-4-CF3) = N[C@@H](CCc1ccc(C(F)(F)F)c(Cl)c1)C(=O)O; NMePhe(4-CF3) = CN[C@@H](Cc1ccc(C(F)(F)F)cc1)C(=O)O; hPhe(4-CF3) = N[C@@H](CCc1ccc(C(F)(F)F)cc1)C(=O)O; NMePhe(3-Cl) = CN[C@@H](Cc1cccc(Cl)c1)C(=O)O; NMePhe(4-Cl) = CN[C@@H](Cc1ccc(Cl)cc1)C(=O)O; NMePhe(4-Me) = CN[C@@H](Cc1ccc(C)cc1)C(=O)O; NMedβ3hAla = C[C@H](CC(=O)[*:2])N(C)[*:1]; NMePhe(2-F) = CN[C@@H](Cc1ccccc1F)C(=O)O; NMeGly(cPent) = CN[C@H](C(=O)O)C1CCCC1; Pro(4,4-F2) = O=C(O)[C@@H]1CC(F)(F)CN1; NMe3Pal = CN[C@@H](Cc1cccnc1)C(=O)O; NMeCha = CN[C@@H](CC1CCCCC1)C(=O)O; Azetidine(3,3-F2) = FC1(F)CN(*)C1; NMeCba = CN[C@@H](CC1CCC1)C(=O)O; NMeChg = CN[C@H](C(=O)O)C1CCCCC1; NMeF = CN[C@@H](Cc1ccccc1)C(=O)O; NMeI = CC[C@H](C)[C@H](NC)C(=O)O; NMeD = CN[C@@H](CC(=O)O)C(=O)O; CH2CONHtBu = CC(C)(C)NC(=O)C*; NMeL = CN[C@@H](CC(C)C)C(=O)O; NMeV = CN[C@H](C(=O)O)C(C)C; d(β3hA) = C[C@@H](N)CC(=O)O; NMeA = CN[C@@H](C)C(=O)O; NMeAib = CNC(C)(C)C(=O)O; Piperidide = C1CCN(*)CC1; Pyrrolidide = C1CCN(*)C1; dNMeA = CN[C@H](C)C(=O)O; Ac5c = NC1(C(=O)O)CCCC1; Aze = O=C(O)[C@@H]1CCN1; Ac4c = NC1(C(=O)O)CCC1; Sar = CNCC(=O)O; Propyl = CCC*

Molecular target: T1, Kras and SOS1 (biotin-tagged human Kras loaded with GDP, His-tagged human SOS1) (Homo sapiens, UniProt P01116, G12D)
T1 construct: made in house; host or cells: E. coli (stated for Kras only)
Assay: Protein-protein interaction inhibition between Kras and SOS1 (KrasGl2D-SOS PPI) using AlphaScreen
Assay type: binding
Details: AlphaScreen; biotin-tagged human Kras loaded with GDP, His-tagged human SOS1; read-out: KRAS G12D-SOS PPI IC50
Method: Protein-Protein Interaction Inhibition Between Kras and SOS1 (KrasGl2D-SOS PPI) Using AlphaScreen
Protein-protein interaction inhibition (PPI) between Kras and SOS1 was measured by energy transfer from nickel-conjugated donor beads to streptavidin-conjugated acceptor beads using biotin-tagged human Kras expressed in E. coli and loaded with GDP after purification and His-tagged human SOS1 enzyme. This measurement utilizes the phenomenon in which donor beads are irradiated with light at 680 nm, such that energy is transferred to acceptor beads through singlet oxygen and light at 520-620 nm is detected from the acceptor beads.
Inhibition of binding between K-ras and SOS1 is known to inhibit signaling downstream of Kras.

T1 sequence (P01116 1-188 isoform P01116-2 G12D): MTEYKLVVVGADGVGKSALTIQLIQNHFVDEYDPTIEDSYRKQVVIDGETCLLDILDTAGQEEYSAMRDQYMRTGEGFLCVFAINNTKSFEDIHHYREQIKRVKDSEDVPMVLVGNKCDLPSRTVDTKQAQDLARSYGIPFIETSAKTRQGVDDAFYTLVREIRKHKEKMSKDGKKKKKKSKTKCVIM

SMILES | IC50 [nM]
CC[C@H](C)[C@@H]1NC(=O)[C@H](CC2CCCCC2)N(C)C(=O)C[C@@H](C)NC(=O)[C@H](C(C)C)N(C)C(=O)C2(CCCC2)NC(=O)[C@@H]2CCCN2C(=O)[C@H](CCc2ccc(C(F)(F)F)c(Cl)c2)NC(=O)CN(C)C(=O)[C@H](CC2CCCCC2)N(C)C(=O)[C@@H]2CCN2C(=O)[C@H](C)N(C)C1=O [Compound 38] (cyclo([Ac5c][NMeV][d(β3hA)][NMeCha]I[NMeA][Aze][NMeCha][Sar][hPhe(3-Cl-4-CF3)]P)) | 160
CCCOC[C@@H]1NC(=O)[C@H](CC(=O)N2CC(F)(F)C2)N(C)C(=O)[C@H](CCc2ccc(C(F)(F)F)c(Cl)c2)NC(=O)CN(C)C(=O)[C@H](CC2CCCCC2)N(C)C(=O)[C@@H]2CCN2C(=O)[C@H](C)N(C)C(=O)[C@H]([C@@H](C)CC)NC(=O)[C@H](CC(C)C)N(C)C(=O)C[C@@H](C(=O)N(C)C)N(C)C(=O)[C@H](C2CCCC2)N(C)C1=O [Compound 41] ([NMeL]I[NMeA][Aze][NMeCha][Sar][hPhe(3-Cl-4-CF3)][NMeD](Azetidine(3,3-F2))S(Propyl)[NMeGly(cPent)][NMeD]-NMe2; lactam N-11) | 11
CC[C@H](C)[C@@H]1NC(=O)[C@H](C)N(C)C(=O)C[C@@H](C)NC(=O)[C@H](C2CCCC2)N(C)C(=O)C2(CCCC2)NC(=O)[C@@H]2CCCN2C(=O)[C@H](CCc2ccc(C(F)(F)F)c(Cl)c2)NC(=O)[C@@H](C)N(C)C(=O)[C@H](Cc2cccc(Cl)c2)N(C)C(=O)[C@@H]2CCN2C(=O)[C@H](C)N(C)C1=O [Compound 42] (cyclo([Ac5c][NMeGly(cPent)][d(β3hA)][NMeA]I[NMeA][Aze][NMePhe(3-Cl)][dNMeA][hPhe(3-Cl-4-CF3)]P)) | 190
CC[C@H](C)[C@@H]1NC(=O)[C@H](CC(C)C)N(C)C(=O)C[C@@H](C(=O)N(C)C)N(C)C(=O)[C@H](C2CCCC2)N(C)C(=O)C2(CCCC2)NC(=O)[C@H](Cc2ccccc2F)N(C)C(=O)[C@H](CCc2ccc(C(F)(F)F)c(Cl)c2)NC(=O)CN(C)C(=O)[C@H](CC2CCCCC2)N(C)C(=O)[C@@H]2CCN2C(=O)[C@H](C)N(C)C1=O [Compound 43] ([NMeL]I[NMeA][Aze][NMeCha][Sar][hPhe(3-Cl-4-CF3)][NMePhe(2-F)][Ac5c][NMeGly(cPent)][NMeD]-NMe2; lactam N-11) | 31
CC[C@H](C)[C@@H]1NC(=O)[C@H](C)N(C)C(=O)C[C@@H](C(=O)N2CCCC2)NC(=O)[C@H](CC(C)C)N(C)C(=O)[C@H](CC(C)C)N(C)C(=O)[C@H](CC(C)C)NC(=O)[C@H](CCc2ccc(C(F)(F)F)cc2)NC(=O)CN(C)C(=O)[C@H](Cc2ccc(Cl)cc2)N(C)C(=O)CN(C)C(=O)CN(C)C1=O [Compound 46] ([NMeA]I[Sar][Sar][NMePhe(4-Cl)][Sar][hPhe(4-CF3)]L[NMeL][NMeL]D-Pyrrolidide; lactam N-11) | 120
CC[C@H](C)[C@@H]1NC(=O)[C@H](C)N(C)C(=O)C[C@@H](C(=O)N2CCCC2)NC(=O)[C@H](CC(C)C)N(C)C(=O)[C@H](Cc2ccccc2)N(C)C(=O)[C@H](CC(C)C)NC(=O)[C@H](CCc2ccc(C(F)(F)F)cc2)NC(=O)CN(C)C(=O)[C@H](Cc2ccc(Cl)cc2)N(C)C(=O)CN(C)C(=O)CN(C)C1=O [Compound 50] ([NMeA]I[Sar][Sar][NMePhe(4-Cl)][Sar][hPhe(4-CF3)]L[NMeF][NMeL]D-Pyrrolidide; lactam N-11) | 28
CC[C@H](C)[C@@H]1NC(=O)[C@H](C)N(C)C(=O)C[C@@H](C(=O)N2CCCC2)NC(=O)[C@H](CC(C)C)N(C)C(=O)[C@H](COCC(=O)NC(C)(C)C)NC(=O)[C@H](CC(C)C)NC(=O)[C@H](CCc2ccc(C(F)(F)F)cc2)NC(=O)CN(C)C(=O)[C@H](Cc2ccc(Cl)cc2)N(C)C(=O)CN(C)C(=O)CN(C)C1=O [Compound 53] ([NMeA]I[Sar][Sar][NMePhe(4-Cl)][Sar][hPhe(4-CF3)]LS(CH2CONHtBu)[NMeL]D-Pyrrolidide; lactam N-11) | 120
CC[C@H](C)[C@@H]1NC(=O)[C@H](CC(C)C)N(C)C(=O)C[C@@H](C)N(C)C(=O)[C@H](CC(C)C)NC(=O)C(C)(C)N(C)C(=O)[C@H](CC(C)C)NC(=O)[C@H](CCc2ccc(C(F)(F)F)c(Cl)c2)NC(=O)CN(C)C(=O)[C@H](CC2CCCCC2)N(C)C(=O)[C@@H]2CCN2C(=O)CN(C)C1=O [Compound 57] (cyclo([Aze][NMeCha][Sar][hPhe(3-Cl-4-CF3)]L[NMeAib]L[NMedβ3hAla][NMeL]I[Sar])) | 16
CC[C@H](C)[C@@H]1NC(=O)[C@H](CC(C)C)N(C)C(=O)C[C@@H](C)NC(=O)[C@H](CC2CCC2)N(C)C(=O)C2(CCCC2)NC(=O)[C@@H]2CCCN2C(=O)[C@H](CCc2ccc(C(F)(F)F)c(Cl)c2)NC(=O)CN(C)C(=O)[C@H](CC2CCCCC2)N(C)C(=O)CN(C)C(=O)CN(C)C1=O [Compound 59] (cyclo([Ac5c][NMeCba][d(β3hA)][NMeL]I[Sar][Sar][NMeCha][Sar][hPhe(3-Cl-4-CF3)]P)) | 36
CC[C@H](C)[C@@H]1NC(=O)[C@H](CC(C)C)N(C)C(=O)C[C@@H](C)N(C)C(=O)[C@H](C2CCCC2)N(C)C(=O)C2(CCC2)NC(=O)[C@@H]2CC(F)(F)CN2C(=O)[C@H](CCc2ccc(C(F)(F)F)c(Cl)c2)NC(=O)CN(C)C(=O)[C@H](Cc2ccc(C(F)(F)F)cc2)N(C)C(=O)CN(C)C(=O)CN(C)C1=O [Compound 62] (cyclo([Ac4c][NMeGly(cPent)][NMedβ3hAla][NMeL]I[Sar][Sar][NMePhe(4-CF3)][Sar][hPhe(3-Cl-4-CF3)][Pro(4,4-F2)])) | 3.8
CC[C@H](C)[C@@H]1NC(=O)[C@H](CC(C)C)N(C)C(=O)C[C@@H](C(=O)N2CCCCC2)N(C)C(=O)[C@H](C2CCCCC2)N(C)C(=O)C2(CCCC2)NC(=O)[C@H](Cc2cccnc2)N(C)C(=O)[C@H](CCc2ccc(C(F)(F)F)c(Cl)c2)NC(=O)CN(C)C(=O)[C@H](CC2CCCCC2)N(C)C(=O)CN(C)C(=O)CN(C)C1=O [Compound 63] ([NMeL]I[Sar][Sar][NMeCha][Sar][hPhe(3-Cl-4-CF3)][NMe3Pal][Ac5c][NMeChg][NMeD]-Piperidide; lactam N-11) | 3.7
CC[C@H](C)[C@@H]1NC(=O)[C@H](CC(C)C)N(C)C(=O)C[C@@H](C(=O)N(C)C)N(C)C(=O)[C@H]([C@@H](C)CC)N(C)C(=O)C2(CCCC2)NC(=O)[C@@H](C)NC(=O)[C@H](CCc2ccc(C(F)(F)F)c(Cl)c2)NC(=O)CN(C)C(=O)[C@H](Cc2ccc(C)cc2)N(C)C(=O)[C@@H]2CCN2C(=O)[C@H](C)N(C)C1=O [Compound 67] ([NMeL]I[NMeA][Aze][NMePhe(4-Me)][Sar][hPhe(3-Cl-4-CF3)][dA][Ac5c][NMeI][NMeD]-NMe2; lactam N-11) | 8.3
CC[C@H](C)[C@@H]1NC(=O)[C@H](C)N(C)C(=O)C[C@@H](C)NC(=O)[C@H](C(C)C)N(C)C(=O)[C@H](Cc2ccccc2)N(C)C(=O)[C@H](CC(C)C)N(C)C(=O)[C@H](CCc2ccc(C(F)(F)F)cc2)NC(=O)CN(C)C(=O)[C@H](Cc2ccc(Cl)cc2)N(C)C(=O)CN(C)C(=O)[C@@H]2CCN2C1=O [Compound 71] (cyclo([Aze][Sar][NMePhe(4-Cl)][Sar][hPhe(4-CF3)][NMeL][NMeF][NMeV][d(β3hA)][NMeA]I)) | 150
CC[C@H](C)[C@@H]1NC(=O)[C@H](CC(C)C)N(C)C(=O)C[C@@H](C)NC(=O)[C@H](C(C)C)N(C)C(=O)C2(CCCC2)NC(=O)[C@@H]2CCCN2C(=O)[C@H](CCc2ccc(C(F)(F)F)c(Cl)c2)NC(=O)[C@H]2CCCN2C(=O)[C@H](CC2CCCCC2)N(C)C(=O)CN(C)C(=O)CN(C)C1=O [Compound 76] (cyclo([Ac5c][NMeV][d(β3hA)][NMeL]I[Sar][Sar][NMeCha][dP][hPhe(3-Cl-4-CF3)]P)) | 190
